Like-named read-outs stand apart in the source and are kept apart here.
Columns and labels:
BRAF V600E = biological target: T1, BRAF V600E (Homo sapiens, UniProt P15056, V600E); experiment: BRAF V600E biochemical kinase activity assay (AlphaScreen, biotin-MEK1 substrate); details: BRAF V600E biochemical inhibitory activity
T1 construct: purchased Upstate Biotechnology

B9 (HRAS Q61L) cell line = experiment: B9 P-ERK cell activation assay (AlphaScreen); assay type: cell-based, mouse; details: Mus musculus, P-ERK cell activation, B9, read-out: Cell activity (EC50 μM) B9_pERK
In short: (§1)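 Mouse B9 (HRAS-driven skin SCC) or human IPC-298 melanoma cells treated with an 8-point compound titration for one hour at 37° C., then lysed. ERK1/2 phosphorylation at Thr202/Tyr204 read by AlphaScreen with total-ERK and phospho-ERK antibodies.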

[1] = system: IPC-298 (NRAS Q61L) cell line; experiment: IPC-298 P-ERK cell activation assay (AlphaScreen); assay type: cell-based, human; details: Homo sapiens; P-ERK cell activation, IPC-298; numeric bounds; read-out: Cell activity (EC50 μM) IPC-298_P-ERK
In short: as §1

[2] = system: A375 (BRAF V600E) cell line; experiment: A375 P-ERK inhibition assay (AlphaScreen); assay type: cell-based, human; details: Homo sapiens, A-375; A375_P-ERK
In short: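 A375 cells treated with 8-point compound titration for 1 h at 37° C, then lysed. ERK1/2 Thr202/Tyr204 phosphorylation measured by AlphaScreen, using biotinylated total-ERK antibody on donor beads and phospho-specific antibody on acceptor beads.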

T1 sequence (P15056 whole entry V600E): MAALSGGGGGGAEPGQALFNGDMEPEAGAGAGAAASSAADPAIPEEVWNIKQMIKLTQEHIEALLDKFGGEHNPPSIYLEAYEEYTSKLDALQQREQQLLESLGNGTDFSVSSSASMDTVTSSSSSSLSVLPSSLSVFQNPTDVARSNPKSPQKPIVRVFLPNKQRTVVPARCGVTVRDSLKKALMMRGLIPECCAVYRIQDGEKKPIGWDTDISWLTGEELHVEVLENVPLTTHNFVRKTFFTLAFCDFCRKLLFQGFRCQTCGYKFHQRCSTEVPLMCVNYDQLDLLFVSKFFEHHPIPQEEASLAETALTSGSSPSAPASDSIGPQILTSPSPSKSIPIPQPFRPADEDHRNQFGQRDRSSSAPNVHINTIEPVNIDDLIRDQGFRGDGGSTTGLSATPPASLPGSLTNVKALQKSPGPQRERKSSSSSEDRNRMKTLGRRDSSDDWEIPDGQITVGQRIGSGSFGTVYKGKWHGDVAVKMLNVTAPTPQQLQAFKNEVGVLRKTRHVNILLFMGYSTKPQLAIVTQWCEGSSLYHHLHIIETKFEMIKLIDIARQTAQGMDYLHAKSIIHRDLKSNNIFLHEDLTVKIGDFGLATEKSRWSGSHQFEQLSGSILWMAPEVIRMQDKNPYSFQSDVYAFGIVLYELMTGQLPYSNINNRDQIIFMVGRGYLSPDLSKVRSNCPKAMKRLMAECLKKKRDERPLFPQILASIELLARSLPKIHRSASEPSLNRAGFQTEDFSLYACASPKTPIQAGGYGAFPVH

SMILES	IC50 (BRAF V600E) [µM]	EC50 (B9 (HRAS Q61L) cell line; numeric bounds) [µM]	EC50 [1] [µM]	IC50 [2] [µM]	EC50 (B9 (HRAS Q61L) cell line; class symbols) [µM]
O=C(c1cc(F)cc(NS(=O)(=O)N2CC[C@@H](F)C2)c1F)c1c[nH]c2ncc(-c3cnc(C4CC4)nc3)cc12 [P-2172, (3R)—N-[3-[5-(2-cyclopropylpyrimidin-5-yl)-1H-pyrrolo[2,3-b]pyridine-3-carbonyl]-2,5-difluoro-phenyl]-3-fluoro-pyrrolidine-1-sulfonamide]	0.0001 to 1	> 1	> 10	0.0001 to 1	
COC(=O)N[C@@H](C)CNc1nccc(-c2nn(C(C)C)cc2-c2cc(Cl)cc(NS(=O)(=O)N(C)C)c2F)n1 [P-2166, methyl N-[(1S)-2-[[4-[4-[5-chloro-3-(dimethylsulfamoylamino)-2-fluoro-phenyl]-1-isopropyl-pyrazol-3-yl]pyrimidin-2-yl]amino]-1-methyl-ethyl]carbamate]	0.0001 to 1		> 10	0.0001 to 1	0.0001 to 1
CCN(C)S(=O)(=O)Nc1ccc(F)c(C(=O)c2c[nH]c3ncnc(NCCOC)c23)c1F [P-2100, 5-[3-[[ethyl(methyl)sulfamoyl]amino]-2,6-difluoro-benzoyl]-4-(2-methoxyethylamino)-7H-pyrrolo[2,3-d]pyrimidine]	0.0001 to 1	> 10	> 10	0.0001 to 1	
CCN(CC)S(=O)(=O)Nc1ccc(F)c(C(=O)c2c[nH]c3nccc(Cl)c23)c1F [Compound P-2011, 4-chloro-3-[3-(diethylsulfamoylamino)-2,6-difluoro-benzoyl]-1H-pyrrolo[2,3-b]pyridine]	0.0001 to 1	> 10	> 10	1 to 10	
[2H]C1([2H])N(S(=O)(=O)Nc2cc(Cl)cc(C(=O)c3c[nH]c4ncc(-c5cnc(C6CC6)nc5)cc34)c2F)C([2H])([2H])C([2H])([2H])C1([2H])[2H] [P-2177, N-[5-chloro-3-[5-(2-cyclopropylpyrimidin-5-yl)-1H-pyrrolo[2,3-b]pyridine-3-carbonyl]-2-fluoro-phenyl]-2,2,3,3,4,4,5,5-octadeuterio-pyrrolidine-1-sulfonamide]	0.0001 to 1	> 10	> 10	0.0001 to 1	
CC(C)(C)c1nc(-c2cccc(NS(=O)(=O)N3CCCC3)c2F)c(Br)s1 [P-2127, N-[3-(5-bromo-2-tert-butyl-thiazol-4-yl)-2-fluoro-phenyl]pyrrolidine-1-sulfonamide]	0.0001 to 1	> 10	> 10	> 10	
N#Cc1ccnc2[nH]cc(C(=O)c3c(F)ccc(NS(=O)(=O)C4CCCCC4)c3F)c12 [P-2018, N-[3-(4-cyano-1H-pyrrolo[2,3-b]pyridine-3-carbonyl)-2,4-difluoro-phenyl]cyclohexanesulfonamide]	0.0001 to 1	> 10	> 10	> 10	
O=C(c1cc(C(F)(F)F)cc(NS(=O)(=O)N2CCCC2)c1F)c1c[nH]c2ncc(-c3cnc(C4CC4)nc3)cc12 [P-2179, N-[3-[5-(2-cyclopropylpyrimidin-5-yl)-1H-pyrrolo[2,3-b]pyridine-3-carbonyl]-2-fluoro-5-(trifluoromethyl)phenyl]pyrrolidine-1-sulfonamide]	1 to 10	> 10	> 10	> 10	
CCN(CC)S(=O)(=O)Nc1ccc(F)c(C(=O)c2c[nH]c3ncnc(NCC4CC4)c23)c1F [P-2052, 4-(cyclopropylmethylamino)-5-[3-(diethylsulfamoylamino)-2,6-difluoro-benzoyl]-7H-pyrrolo[2,3-d]pyrimidine]	0.0001 to 1	> 10	> 10	0.0001 to 1	
N#Cc1ccnc2[nH]cc(C(=O)c3c(F)ccc(NS(=O)(=O)C4CCC4)c3F)c12 [P-2021, N-[3-(4-cyano-1H-pyrrolo[2,3-b]pyridine-3-carbonyl)-2,4-difluoro-phenyl]cyclobutanesulfonamide]	0.0001 to 1	> 10	> 10	> 10	
Cc1cc2c(-c3sc(C(C)(C)C)nc3-c3cccc(NS(=O)(=O)N4CCCC4)c3F)ccnc2[nH]1 [P-2121, N-[3-[2-tert-butyl-5-(2-methyl-1H-pyrrolo[2,3-b]pyridin-4-yl)thiazol-4-yl]-2-fluoro-phenyl]pyrrolidine-1-sulfonamide]	0.0001 to 1	> 10	> 10	0.0001 to 1	

The next lines start with the values.

IC50 (BRAF V600E) [µM]	EC50 (B9 (HRAS Q61L) cell line; numeric bounds) [µM]	EC50 [1] [µM]	IC50 [2] [µM]	EC50 (B9 (HRAS Q61L) cell line; class symbols) [µM]	SMILES
0.0001 to 1	> 10	> 10	0.0001 to 1		COCCNc1ncnc2[nH]cc(C(=O)c3cccc(NS(=O)(=O)N4CCCC4)c3F)c12 [P-2104, N-[2-fluoro-3-[4-(2-methoxyethylamino)-7H-pyrrolo[2,3-d]pyrimidine-5-carbonyl]phenyl]pyrrolidine-1-sulfonamide]
0.0001 to 1	> 10	> 10	0.0001 to 1		CCN(CC)S(=O)(=O)Nc1ccc(F)c(C(=O)c2c[nH]c3ncnc(NC(C)C)c23)c1F [P-2042, 5-[3-(diethylsulfamoylamino)-2,6-difluoro-benzoyl]-4-(isopropylamino)-7H-pyrrolo[2,3-d]pyrimidine]
0.0001 to 1	> 10	> 10	0.0001 to 1		O=C(c1cccc(NS(=O)(=O)N2CCCC2)c1F)c1c[nH]c2ncnc(NCC3CC3)c12 [P-2057, N-[3-[4-(cyclopropylmethylamino)-7H-pyrrolo[2,3-d]pyrimidine-5-carbonyl]-2-fluoro-phenyl]pyrrolidine-1-sulfonamide]
0.0001 to 1	> 10	> 10	1 to 10		COC(=O)C(CC(C)C)Nc1ncnc2[nH]cc(C(=O)c3cccc(NS(=O)(=O)N4CCCC4)c3F)c12 (stereo not shown) [P-2107, methyl 2-[[5-[2-fluoro-3-(pyrrolidin-1-ylsulfonylamino)benzoyl]-7H-pyrrolo[2,3-d]pyrimidin-4-yl]amino]-4-methyl-pentanoate]
0.0001 to 1	> 10	> 10	> 10		CC(=O)Nc1ccc(NC(=O)c2c(F)ccc(NS(=O)(=O)N3CCCCC3)c2F)cn1 [P-2033, N-(6-acetamido-3-pyridyl)-2,6-difluoro-3-(1-piperidylsulfonylamino)benzamide]
0.0001 to 1	> 10	> 10	0.0001 to 1		CNc1ncnc2[nH]cc(C(=O)c3cccc(NS(=O)(=O)N4CCCC4)c3F)c12 [P-2071, N-[2-fluoro-3-[4-(methylamino)-7H-pyrrolo[2,3-d]pyrimidine-5-carbonyl]phenyl]pyrrolidine-1-sulfonamide]
0.0001 to 1	> 10	> 10	0.0001 to 1		O=C(c1cccc(NS(=O)(=O)N2CCCC2)c1F)c1c[nH]c2ncnc(NC3CCOCC3)c12 [P-2083, N-[2-fluoro-3-[4-(tetrahydropyran-4-ylamino)-7H-pyrrolo[2,3-d]pyrimidine-5-carbonyl]phenyl]pyrrolidine-1-sulfonamide]
0.0001 to 1	> 10	> 10	0.0001 to 1		CCCN(C)S(=O)(=O)Nc1cccc(C(=O)c2c[nH]c3ncnc(C)c23)c1F [P-2086, 5-[2-fluoro-3-[[methyl(propyl)sulfamoyl]amino]benzoyl]-4-methyl-7H-pyrrolo[2,3-d]pyrimidine]
0.0001 to 1	> 10	> 10	0.0001 to 1		CC(C)Nc1ncnc2[nH]cc(C(=O)c3c(F)ccc(NS(=O)(=O)C(C)C)c3F)c12 [P-2037, N-[2,4-difluoro-3-[4-(isopropylamino)-7H-pyrrolo[2,3-d]pyrimidine-5-carbonyl]phenyl]propane-2-sulfonamide]
0.0001 to 1	> 10	> 10	1 to 10		CCCN(C)S(=O)(=O)Nc1cccc(C(=O)c2c[nH]c3ncnc(C4CC4)c23)c1F [P-2087, 4-cyclopropyl-5-[2-fluoro-3-[[methyl(propyl)sulfamoyl]amino]benzoyl]-7H-pyrrolo[2,3-d]pyrimidine]
0.0001 to 1	> 10	> 10	0.0001 to 1		CCN(C)S(=O)(=O)Nc1cccc(C(=O)c2c[nH]c3ncnc(C4CC4)c23)c1F [P-2091, 4-cyclopropyl-5-[3-[[ethyl(methyl)sulfamoyl]amino]-2-fluoro-benzoyl]-7H-pyrrolo[2,3-d]pyrimidine]
0.0001 to 1	> 10	> 10	0.0001 to 1		CCN(C)S(=O)(=O)Nc1cccc(C(=O)c2c[nH]c3ncnc(NC4CCC4)c23)c1F [P-2072, 4-(cyclobutylamino)-5-[3-[[ethyl(methyl)sulfamoyl]amino]-2-fluoro-benzoyl]-7H-pyrrolo[2,3-d]pyrimidine]
0.0001 to 1	> 10	> 10	0.0001 to 1		CCOC(=O)CNc1ncnc2[nH]cc(C(=O)c3cccc(NS(=O)(=O)N4CCCC4)c3F)c12 [P-2103, ethyl 2-[[5-[2-fluoro-3-(pyrrolidin-1-ylsulfonylamino)benzoyl]-7H-pyrrolo[2,3-d]pyrimidin-4-yl]amino]acetate]
1 to 10	> 10	> 10	> 10		O=C(c1cccc(NS(=O)(=O)N2CCCC2)c1F)c1c[nH]c2ncnc(NC3(C(=O)O)CC3)c12 [P-2097, 1-[[5-[2-fluoro-3-(pyrrolidin-1-ylsulfonylamino)benzoyl]-7H-pyrrolo[2,3-d]pyrimidin-4-yl]amino]cyclopropanecarboxylic acid]

Reference: patent publication US10421761B2, “Compounds for kinase modulation, and indications therefor” (Plexxikon Inc., priority 2013, dated 2019)
